Like-named read-outs stand apart in the source and are kept apart here.

The subject of data set [1] is neuronal SynCre+ Pank1,2 dKO mice. The experiment in a line: Survival, weight gain and physiology of neuronal SynCre+ Pank1,2 dKO mice on Compound 1 chow. Format: in vivo, mouse. As to conditions: 75 ppm chow. From the text:
All procedures were reviewed and approved by the St. Jude Children's Research Hospital Institutional Animal Care and Use Committee. […] The mice were maintained at room temperature, humidity 50±10% and a 14/10-hour light/dark cycle. […] Water was supplied ad libitum. Mice were randomized into the treatment arms at weaning.
Neuron-specific deletion of Pank1 and Pank2 was confirmed by PCR genotyping of brain and liver postmortem as described by Sharma et al.

Another data set in a line: in vivo. As to conditions: male, BALB/c, mouse, plasma; for bioavailability: oral.
Data set [2] is described as follows: Pharmacokinetic evaluation in plasma of male BALB/c mice.
The next data set deals with C3A cells. The experiment in a line: Total cellular CoA in C3A cells. The format is cell-based, human. As to conditions: 10 μM, 24 h. How it is done: Cell culture. Human C3A (HepG2/C3A) cells (#CRL-1074) were purchased from ATCC® and maintained in DMEM supplemented with 2 mM glutamine, 10% fetal bovine serum (Atlanta Biologicals), 50 U/ml penicillin and […] streptomycin. HEK293T cells (ATCC, #CRL-3216) were used for expression of human PCCA protein standard and were maintained in DMEM plus supplements as described above. Each cell line was confirmed to be mycoplasma-free. […] DMSO alone was added to control cultures. Culture medium was aspirated off the dish, cells were quickly washed with ice-cold phosphate-buffered saline that was quickly aspirated off the dish, and cells were quickly washed again with ice-cold water that was aspirated off to remove residual saline. Ice-cold water (1 ml) was added to the culture dish, cells were scraped into the cold water and the cell suspension was transferred to a glass test tube containing 400 μl of […] KOH and 1.5 ml water for analysis of total CoA content.

For data set [3], the system named is Pcca−/−PCCA(A138T)tg/0 (PA) mice.
The next data set has as its system C57BL/6J mice. The experiment in a line: Liver total CoA and drug exposure in C57BL/6J mice (gavage or chow).
Data set [4] deals with Pcca−/−PCCA(A138T)tg/0 (PA) mice. The experiment in a line: Short-term (3-day gavage) PZ-3022 treatment of PA mice: liver CoA pools and carnitines.
For data set [5] the test system is unchanged. The experiment in a line: TCA cycle intermediates in urine of PZ-3022-treated PA mice. As to conditions: PZ-3022 therapy. Format: in vivo, mouse. The method, then: FIGS. 6A-6B show TCA cycle intermediates in plasma and urine of treated PA mice. Urinary TCA cycle metabolites eliminated over 24 h were quantified by mass spectrometry and normalized to mouse body weight. […] Three male (blue) and three female (red) mice were used for each determination.
(§1) Animal experiments. […] Water was supplied ad libitum.
Metabolites in urine and plasma. Water was added to a 24-h urine sample to a final volume of 1 ml for each mouse. To 100 μl of urine or 20 μl of plasma, warfarin standard was added at a final concentration of 0.2 μM and the sample was incubated at −80° C. for 1 hour. The sample was centrifuged at 6000×g for 10 minutes to remove precipitants and the supernatant was analyzed by LC/MS/MS. […] Solvent A was 0.1% formic acid in water, and Solvent B was acetonitrile+0.1% formic acid. […] The MRMs for metabolites in either the positive or negative mode were taken from. The MRMs for the warfarin internal standard were: negative mode, 307.1/161.0; and positive mode, 309.1/163.0. […] The relative amount of metabolite was normalized to the amount of warfarin. To improve glycine detection, this metabolite was measured after derivatization with benzoyl chloride using the technology and MRMs described.

The next data set concerns wild-type mice. The experiment in a line: Effect of PZ-3022 chow on liver CoA, amino acids and TCA metabolites in wild-type mice. Format: in vivo, mouse. How it is done:
FIGS. 20A-20E show liver CoASH (20A), liver C2-CoA (20B), liver C3-CoA (20C), liver C3:C2-CoA ratio (20D), and plasma and urine amino acid levels (20E). Number of mice in each group are shown in parenthesis. Amino acids were measured by mass spectrometry using warfarin as an internal standard except for glycine, which was measured as its benzoyl derivative. […] Two male (blue) and three female (red) mice were used for each determination.
Urinary TCA cycle metabolites eliminated over 24 h were quantified by mass spectrometry and normalized to mouse body weight. […] Male (blue) and female (red) mice were used for each determination. Number of mice in each group are shown in parenthesis.
as §1

The mark [6] stands for this setting: 75 ppm chow to day 70, male and female.
Setting [7] is: 10 or 30 mg/kg plus 50 mg/kg pantothenate, 3 doses.
Where [8] appears, read: 24 h urine normalized to body weight.

In the case of `O=C(Cc1ccc(C2CC2)c(F)c1)N1CCN(c2ccc(Cl)nn2)CC1` [Compound 1], in data set [1], the “Growth rate, lifespan and movement dysfunction” value was “improvement of growth rate, lifespan, and movement dysfunction”. In data set [1] (at the time of evaluation), the “Weight gain, greater than untreated dKO” value stood at 10%.

Usually Cmax stands for the maximum level reached in the sampled fluid or tissue. What is called bioavailability is the share of a dose that reaches the circulation, judged against a reference dose that is usually intravenous. As a reminder, the Vss is the apparent volume that relates the amount in the body to the concentration in plasma or blood. Lower therefore signals confinement near the circulation. By Tmax is commonly meant the time at which the peak concentration occurs. `CC(C)c1ccc(CC(=O)N2CCN(c3ccc(C#N)nn3)CC2)cc1` [PZ-2891] gave a Cmax in the data set “in vivo” (iv, 2 mg/kg) of 2810 ng/mL. The molecule further came in with a bioavailability in “in vivo” (10 mg/kg) of 46%. Also, in data set [2] (i.v. 2 mg/kg), the AUCinf worked out at 611.5 ng·h/mL, the AUClast is 608.6 ng·h/mL, the CL was found to be 54.5 mL/min/kg and the T1/2 was 18 min. The same molecule yielded a Vss in data set [2] (i.v. 2 mg/kg) of 0.9 L/kg. Also, in data set [2] (p.o. 10 mg/kg), the AUCinf amounted to 1424.0 ng·h/mL, the AUClast came out at 1397.8 ng·h/mL and the “C0/Cmax (Cmax)” value is 1886.5 ng/mL. In addition, in data set [2] (p.o. 10 mg/kg, 30% Captisol, male BALB/c mice, plasma), the Tmax worked out at 18 min.

One may read the AUC(0-t) as the area under the concentration-time curve up to a stated or last time point. With `N#Cc1ccc(N2CCN(C(=O)Cc3ccc(C4CC4)cc3)CC2)nn1` [PZ-3022, 6-(4-(2-(4-cyclopropylphenyl)acetyl)piperazin-1-yl)pyridazine-3-carbonitrile], the “Elevation of total cellular CoA” value in the data set on C3A cells was “just as effective at raising total CoA levels in cultured cells as PZ-2891”. The “Liver CoASH” value in [3] (75 ppm PZ-3022 + 1000 ppm pantothenate chow from day 21 to day 70, males and females) is “restored liver CoASH levels to wild-type”. Besides, in data set [3] (75 ppm chow to day 70), the “Hepatic C3-CoA” value is recorded as “significant drop”, the “Liver C2-CoA” value was “restored to wild-type levels”, the “Liver C2-carnitine” value is given as “did not exhibit significant increases” and the Liver carnitine entry is on record as “did not exhibit significant increases”. The “Plasma C3-carnitine” value in data set [3] (75 ppm chow to day 70, female mice) was “reduced”. For the same molecule, in data set [3] (setting [6]), the “Liver C3-carnitine” value is given as “significantly decreased”, the “Plasma C2-carnitine” value is “significantly increased” and the Plasma carnitine result is reported as “increase”. Moreover, in [3] (75 ppm chow to day 70, male mice), the “Plasma C3-carnitine” value is “the same in the treated and untreated male mice”. In addition, the “Heart total CoA” value in data set [3] (PZ-3022 chow until 70 days of age) is “increased”. Moreover, in data set [3] (PZ-3022 therapy), the “Reduction in C3-CoA in liver” value is listed as 50%. Moreover, the “Elevation of hepatic total CoA” value with C57BL/6J mice (10 mg/kg oral gavage every 24 h for three days, 4 h after last dose) is listed as “slightly more potent in elevating CoA than PZ-2891”. The “Total liver CoA versus dose in chow” value in the data set with C57BL/6J mice (7.5, 37.5 and 75 ppm in chow with 1000 ppm pantothenate, 1 week) is “dose response relationship”. Also, in the data set with C57BL/6J mice (7.5, 37.5 and 75 ppm in chow, 1 week), the “Plasma and liver PZ-3022 levels versus dose in chow” value is listed as “dose-dependent increase in drug”. In addition, the “Hepatic CoA levels at 24 h” value in the data set on C57BL/6J mice (gavage) was “returned to the pre-dose level”. In the data set on C57BL/6J mice (gavage, C57BL/6J male mice), the “Time at which elevation of liver CoA begins after administration” value stood at 2 h and the “Time up to which elevation of liver CoA is maintained” value is “up to 8 h”. Besides, the “Circulating PZ-3022 at 24 h” value with C57BL/6J mice (gavage, plasma) is “not detected”. Further, the “Parent drug levels in plasma and liver” value in the data set on C57BL/6J mice (same oral dosage, 75 ppm chow for 4 weeks) is “higher levels of circulating (FIG. 16C) and liver (FIG. 16D) PZ-3022 compared to PZ-2891”. Also, the “Liver total CoA” value in data set [4] (10 and 30 mg/kg, 3 doses, fluorescent derivatization) was “significant, dose-dependent elevation”. Moreover, in data set [4] (setting [7]), the “Liver C2-CoA” value is listed as “increased” and the “Liver C3-CoA” value was “decreased but was not eliminated”. In addition, the “Liver CoASH” value in [4] (10 or 30 mg/kg plus 50 mg/kg pantothenate, 3 doses at 24 h, 4 h after last dose) is given as “significantly elevated”. In [5] (24 h urine), the “Reduction in urinary methylmalonate” value is 47% and the “Reduction of urinary malate” value is listed as 80%. In [5] (setting [8]), the Urine citrate level result is recorded as “significantly reduced”, the Urine malate level entry was “significantly reduced”, the Urine methylmalonate level result is on record as “significantly reduced” and the “Urine α-ketoglutarate level” value is reported as “significantly reduced”. Also, in “in vivo” (iv, 2 mg/kg), the AUC(0-t) is 2960 ng·h/mL and the Cmax amounted to 3290 ng/mL. The molecule further displayed a bioavailability in “in vivo” (10 mg/kg) of 100%. The AUC(0-t) in “in vivo” (po, 10 mg/kg) amounted to 16900 ng·h/mL. Further, the “Plasma and urine TCA cycle-related metabolite levels” value in the data set on wild-type mice (treated vs untreated wild-type mice) was “no differences”. Besides, in the data set on wild-type mice (wild-type mice on PZ-3022 chow), the “Liver C3-CoA” value is given as “not altered”; the “Liver CoASH” value is recorded as “increased as expected”; the “Liver acetyl-CoA” value is “increased as expected”; the “Plasma and urine amino acids” value was “not changed with the exception of histidine being lower in plasma and higher in urine”.

For the origin of these results see patent publication US20240115566A1, “METHODS OF TREATING DISORDERS ASSOCIATED WITH CASTOR” (ST. JUDE CHILDREN'S RESEARCH HOSPITAL, INC., priority 2020, published 2024).
